According to ChEMBL document CHEMBL1149033, “Novel HIV-inhibitory halistanol sulfates F-H from a marine sponge, Pseudoaxinissa digitata” (J Nat Prod, 1994):
Calls of active or inactive are those of the source. No cut-off for these calls is given here.

Key:
[1] = test system: Human immunodeficiency virus 1; assay: Antiviral activity against HIV1 assessed as cytoprotective activity against viral-infection by NCI primary screen; assay type: functional, organism-based
[2] = test system: Human immunodeficiency virus 2; assay: Antiviral activity against HIV2 assessed as cytoprotective activity against viral-infection by NCI primary screen; assay type: functional, organism-based

Question: What does the source list for `CCC(C)(C)C(C)CC[C@@H](C)[C@H]1CC[C@H]2[C@@H]3C[C@H](OS(=O)(=O)[O-])[C@H]4C[C@H](OS(=O)(=O)[O-])[C@@H](OS(=O)(=O)[O-])C[C@]4(C)[C@H]3CC[C@]12C.[Na+].[Na+].[Na+]` (some centres undefined) [HALISTANOL SULFATE F]?
Answer: EC50 [1]: 3 µg/mL; Activity [2]: Active

Question: Which results are given for `CC(C)[C@@H](C)CC[C@@H](C)[C@H]1CC[C@H]2[C@@H]3C[C@H](OS(=O)(=O)[O-])[C@H]4C[C@H](OS(=O)(=O)[O-])[C@@H](OS(=O)(=O)[O-])C[C@]4(C)[C@H]3CC[C@]12C.[Na+].[Na+].[Na+]` [HALISTANOL SULFATE G SODIUM]?
Answer: EC50 [1]: 6 µg/mL; Activity [2]: Active
